Experimental data published in patent EP4678750A1 (priority 2023, dated 2024).

Tests used:
[1] = system: replicon RNA transcribed from SCVR; type: cell-based, SARS-CoV-1
[2] = system: replicon RNA transcribed from MERVR; type: cell-based, MERS-CoV
[3] = system: replicon RNA transcribed from HKU1; type: cell-based, Embecovirus
[4] = system: replicon RNA transcribed from NOBEVR; assay: microbe, parasite or virus in culture; type: cell-based, Nobecovirus
[5] = system: replicon RNA transcribed from SC2R; type: cell-based, SARS-CoV-2
[6] = system: HCV replicon RNA; assay: HCV subgenomic replicon replication, Renilla luciferase activity; type: cell-based, genotype 1b HCV (1B-4 strain); conditions: Hepatitis C virus; 72 hours, RL activity, FIG. 15B; read-out: EC50, inhibition of the replication of HCV replicon RNA
[7] = system: replicon RNA transcribed from SC2R; assay: microbe, parasite or virus in culture; type: cell-based, SARS-CoV-2; conditions: Severe acute respiratory syndrome coronavirus 2, 48 h, read-out: EC50, inhibition of the replication of replicon RNA transcribed from SC2R
[8] = Evaluation of cytotoxicity (WST-1); conditions: human, HuH-7.6c cells

SMILES	replication of replicon RNA transcribed from SCVR [1]	replication of replicon RNA transcribed from MERVR [2]	replication of replicon RNA transcribed from HKU1 [3]	replication of replicon RNA transcribed from NOBEVR [4]	replication of replicon RNA transcribed from SC2R [5]	replication of replicon RNA in HKU1 [3]	replication of replicon RNA in NOBEVR [4]	further results
CN(C)CC#Cc1ccc(OCCCc2sc(N3CCc4cccc(C(=O)Nc5nc6ccccc6s5)c4C3)nc2C(=O)O)c(F)c1 [A-1155463]	inhibited	inhibited	inhibited	inhibited	inhibited			concentration responsiveness of the replication level of SARS-CoV-2 replicon RNA [5]: inhibited the replication of replicon RNA transcribed from SC2R in a concentration-dependent manner
Cc1c(-c2ccc(N3CCc4cccc(C(=O)Nc5nc6ccccc6s5)c4C3)nc2C(=O)O)cnn1CC12CC3CC(CC(C3)C1)C2 [A-1331852]	inhibited	inhibited	inhibited	inhibited	inhibited			EC50 [6]: 14.8 nM; EC50 [7]: 1.46 nM
CN(C)CC[C@H](CSc1ccccc1)Nc1ccc(S(=O)(=O)NC(=O)c2ccc(N3CCN(Cc4ccccc4-c4ccc(Cl)cc4)CC3)cc2)cc1[N+](=O)[O-] [ABT-737]	inhibited	inhibited	inhibited	inhibited	inhibited			
CC(C)(C)[C@H](NC(=O)C(F)(F)F)C(=O)N1C[C@H]2[C@@H]([C@H]1C(=O)N[C@H](C#N)C[C@@H]1CCNC1=O)C2(C)C [PF-07321332]						did not inhibit	did not inhibit	
COc1cc2c(cc1OC)[C@@H](Cc1ccc(Oc3cc(C[C@@H]4c5cc(OC)c(OC)cc5CCN4C)ccc3O)cc1)N(C)CC2 [dauricine]								inhibitory activity against the replication of replicon RNA transcribed from NOBEVR [4]: strong inhibitory activity; replicon RNA replication inhibitory activity against SC2R [5]: replicon RNA replication inhibitory activity
COc1cc2c(cc1O)[C@@H](Cc1ccc(O)c(Oc3ccc(C[C@@H]4c5cc(OC)c(OC)cc5CCN4C)cc3)c1)N(C)CC2 [daurisoline]								inhibitory activity against the replication of replicon RNA transcribed from NOBEVR [4]: strong inhibitory activity; replicon RNA replication inhibitory activity against SC2R [5]: replicon RNA replication inhibitory activity
Cn1cnc(Cn2c(=O)[nH]/c(=N\c3cc4cn(C)nc4cc3Cl)n(Cc3cc(F)c(F)cc3F)c2=O)n1.O=C(O)/C=C/C(=O)O [ensitrevir fumarate]						did not inhibit	did not inhibit	
NC(=O)c1nc(F)c[nH]c1=O [favipiravir]						did not inhibit	did not inhibit	
CC(C)=CCC[C@]1(C)C=Cc2c(O)c3c(c(CC=C(C)C)c2O1)O[C@]12C(=C[C@@H]4C[C@H]1C(C)(C)O[C@@]2(C/C=C(/C)C(=O)O)C4=O)C3=O [gambogic acid]					inhibited			
CC1(C)CCC(c2ccc(Cl)cc2)=C(CN2CCN(c3ccc(C(=O)NS(=O)(=O)c4ccc(N[C@H](CCN5CCOCC5)CSc5ccccc5)c(S(=O)(=O)C(F)(F)F)c4)cc3)CC2)C1 [navitoclax]	inhibited	inhibited	inhibited	inhibited	inhibited			inhibitory activity against the replication of replicon RNA transcribed from NOBEVR [4]: inhibitory activity; EC50 ([4]; Nobecovirus, 48 h, read-out: EC50, inhibition of the replication of replicon RNA transcribed from NOBEVR): 280 nM; CC50 at 48 h [8]: 18.6 µM
CCC(CC)COC(=O)[C@H](C)N[P@](=O)(OC[C@H]1O[C@@](C#N)(c2ccc3c(N)ncnn23)[C@H](O)[C@@H]1O)Oc1ccccc1 [remdesivir]						did not inhibit	did not inhibit	
CC1(C)CCC(CN2CCN(c3ccc(C(=O)NS(=O)(=O)c4ccc(NCC5CCOCC5)c([N+](=O)[O-])c4)c(Oc4cnc5[nH]ccc5c4)c3)CC2)=C(c2ccc(Cl)cc2)C1 [venetoclax]					did not inhibit			
